Results reported in patent publication US20160347739A1, “5-OXOPYRROLIDINE DERIVATIVES AS HIV INTEGRASE INHIBITORS” (priority 2014, published 2016).
Entries after “also recorded” stand apart in the source; their conditions may differ.

Target: T1, eGFP-MBP-IN-WT (HIV-1 integrase fusion protein) (Human immunodeficiency virus type 1 group M subtype B, UniProt P04585)
T1 construct: as well as integrase wild type (eGFP-MBP-IN-WT) DNA plasmid; expressed in transfected cells; host or cells: HEK 293T cells; plasmid from Dr. Mark A. Muesing (Rockefeller University)
Experiment: cellular integrase screening assay (C-terminal domain of HIV-1 IN nuclear import inhibition)
Type: cell-based
Conditions: HEK 293T cells transfected with eGFP-MBP-IN-WT plasmid; compounds at 10, 3.3, 1.1 and 0.33 μM, 0.1% DMSO; fluorescence microscopy
Method: In assessing suitability of a compound according to any of the formulas herein, an integrase screening assay can be conducted. In the present case, an exemplary such assay is a cellular integrase assay. A cellular integrase assay can be performed in a 24 well plate. The assay is designed to test compounds in 3-fold serial dilutions (10, 3.3, 1.1 and 0.33 μM) with 0.1% DMSO. Negative and positive control included eGFP-MBP-IN-R262/3/6A, eGFP-MBP-IN-K236/240 and eGFP-MBP-IN-WT respectively supplemented with 0.1% DMSO. Refinement of the assay for optimal results is feasible. For example, refinement herein yields the following protocol. HEK 293T cells (˜0.4*10̂5 cells/ml) are seeded and incubated at 37° C. (5% CO2) for ˜3 days on Poly-L-lysine treated glass coverslips until 80-90% confluent (˜3.2*10̂5 cells/ml). […] Images may be prepared using an Olympus 1X51 fluorescence microscope equipped with a camera by way of example. […]
As an integrase screening assay, a cellular integrase assay was performed in a 24 well plate. […] Slides were visualized and images, of at least 2 fields per glass disk, were taken with an Olympus 1X51 fluorescence microscope equipped with a camera. […]

N-(3-ethoxy propyl)-1-[2-(5-methyl-1H-indol-3-yl)ethyl]-5-oxopyrrolidine [compound 209]
localization phenotype of eGFP-MBP-IN-WT fusion protein (inhibition of nuclear import of IN): nuclear exclusion of the fusion protein; also recorded: exhibited inhibition against HIV to prevent nuclear import of the HIV integrase; also recorded: inhibition of nuclear import of IN
